Results published in the supplement of paper PMC10307832.

Tests used:
Experiment in all cases: relative viability (nuclei count vs DMSO), 5 days (fraction); higher = more cells survive
[1] = compound: C1=CC=C(C(=C1)C2=CC=C(C=C2)C3=CSC4=C3C(=C(C(=O)N4)C#N)O)O + CCNC(=O)c1noc(-c2cc(C(C)C)c(O)cc2O)c1-c1ccc(CN2CCOCC2)cc1 [Luminespib] (partner 0.01 µM)
Outline: (§1)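 Five library-drug doses in √10 steps were combined with a fixed anchor-drug dose, or a single drug was given alone, by pin tool to lung cancer cell lines in 1536-well plates the day after seeding. Nuclei were stained and counted after 5 days. Relative viability is the nuclei count in treated wells over that in vehicle wells, taken as the median of duplicate plates.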

[2] = compound: C1=CC=C(C(=C1)C2=CC=C(C=C2)C3=CSC4=C3C(=C(C(=O)N4)C#N)O)O + C[C@@H](Oc1cc(-c2cnn(C3CCNCC3)c2)cnc1N)c1c(Cl)ccc(F)c1Cl [Crizotinib] (partner 1 µM)
Outline: as §1

TGX 221 + OSI-027 = compound: CC1=CN2C(=O)C=C(N=C2C(=C1)C(C)NC3=CC=CC=C3)N4CCOCC4 [TGX 221] + COc1cccc2cc(-c3nc([C@H]4CC[C@H](C(=O)O)CC4)n4ncnc(N)c34)[nH]c12 [OSI-027] (partner 0.5 µM)
Outline: as §1

[3] = compound: O=C(CCCCCCNC(=O)c1cnc(N(c2ccccc2)c2ccccc2)nc1)NO [Ricolinostat] + O=C(CCCCCCC(=O)Nc1ccccc1)NO [Vorinostat] (partner 1 µM)
Outline: as §1

Row | Cell Line | relative viability ([1]; first compound 0.08 µM) | relative viability ([1]; first compound 0.253 µM) | relative viability ([1]; first compound 0.8 µM) | relative viability ([1]; first compound 2.53 µM) | relative viability ([1]; first compound 8 µM) | relative viability ([2]; first compound 0.08 µM) | relative viability ([2]; first compound 0.253 µM) | relative viability ([2]; first compound 0.8 µM) | relative viability ([2]; first compound 2.53 µM) | relative viability ([2]; first compound 8 µM) | relative viability (TGX 221 + OSI-027; first compound 0.08 µM) | relative viability (TGX 221 + OSI-027; first compound 0.253 µM) | relative viability (TGX 221 + OSI-027; first compound 0.8 µM) | relative viability (TGX 221 + OSI-027; first compound 2.53 µM) | relative viability (TGX 221 + OSI-027; first compound 8 µM) | relative viability ([3]; first compound 0.08 µM) | relative viability ([3]; first compound 0.253 µM) | relative viability ([3]; first compound 0.8 µM) | relative viability ([3]; first compound 2.53 µM)
1 | NCI-H596 | 0.696 | 0.941 | 0.943 | 1.15 | 0.904 | 0.96 | 1.02 | 1.08 | 0.97 | 0.834 | 0.748 | 0.688 | 0.803 | 0.487 | 0.693 | 0.61 | 0.645 | 0.567 | 0.432
2 | LCLC-97TM1 | 0.971 | 1.07 | 0.78 | 0.729 | 0.654 | 0.428 | 0.65 | 0.495 | 0.271 | 0.191 | 0.357 | 0.466 | 0.494 | 0.485 | 0.546 | 0.487 | 0.556 | 0.628 | 0.333
3 | NCI-H1437 | 1.01 | 1.34 | 1.17 | 1.17 | 0.902 | 0.699 | 0.989 | 0.883 | 1.01 | 0.765 | 0.878 | 0.899 | 0.809 | 0.848 | 0.728 | 0.853 | 0.712 | 0.611 | 0.426
4 | NCI-H1915 | 0.665 | 0.632 |  | 0.929 | 0.576 | 0.806 | 1.05 | 0.828 | 0.937 | 0.65 | 0.575 | 0.601 | 0.63 | 0.472 | 0.619 | 0.468 | 0.51 | 0.467 | 0.326
5 | NCI-H441 | 0.344 | 0.352 | 0.269 | 0.308 | 0.344 | 0.738 | 0.873 | 0.839 | 0.777 | 0.525 | 0.58 | 0.698 | 0.576 | 0.728 | 0.665 | 0.735 | 0.76 | 0.643 | 0.54
6 | SW 1573 | 0.192 | 0.105 | 0.147 | 0.219 | 0.275 | 0.683 | 0.796 | 0.897 | 0.797 | 0.61 | 0.511 | 0.569 | 0.525 | 0.513 | 0.494 | 0.554 | 0.667 | 0.751 | 0.49
7 | NCI-H661 | 0.808 | 0.985 | 0.964 | 0.9 | 0.898 |  | 1.11 | 0.94 | 1.07 | 0.952 | 0.748 | 0.695 | 0.689 | 0.673 | 0.706 | 0.68 | 0.716 | 0.722 | 0.558
8 | PC-3 [JPC-3] | 0.564 | 0.774 | 0.787 | 0.679 | 0.74 | 0.986 | 1.12 | 0.915 | 1 | 0.891 | 0.756 | 0.775 | 0.788 | 0.751 | 0.806 | 0.505 | 0.854 | 0.448 | 0.669
9 | 201T | 0.873 | 0.981 | 1.03 | 1.09 | 1.08 | 0.992 | 1.08 | 1.06 | 1.01 | 1.11 | 0.547 | 0.726 | 1.08 | 0.708 | 0.696 | 0.818 | 0.951 | 0.959 | 0.843
10 | LK-2 |  | 0.192 | 0.193 | 0.184 | 0.191 |  |  | 0.236 | 0.21 | 0.296 | 0.212 | 0.246 | 0.216 | 0.225 | 0.237 | 0.393 | 0.311 | 0.261 | 0.192
11 | NCI-H727 | 0.451 | 0.356 | 0.43 | 0.487 | 0.341 | 0.701 | 0.961 | 0.864 | 0.995 | 0.756 | 0.556 | 0.478 | 0.693 | 0.529 | 0.566 | 1.13 | 1.15 | 1.08 | 0.936
